Data from US8067456B2 (AEterna Zentaris GmbH, priority 2004, dated 2011).
Converted amounts (≈) assume the structure as drawn. Where two headings read alike, the source gives them in different places.

How the values were obtained:
rat LHRH receptor = molecular target: T1, rat LHRH receptor (Rattus norvegicus, UniProt P30969); assay: LHRH receptor-ligand binding assay (transfected LTK cells); settings: LTK cells transfected with rat LHRH receptor, 125I-triptorelin tracer, 37° C., 60 min; read-out: Binding to r-LHRHR EC50
T1 construct: expressed in transfected cells; host or cells: LTK cells (mouse fibroblasts, ATCC CCL-1.3)
T1 sequence (P30969 1-327): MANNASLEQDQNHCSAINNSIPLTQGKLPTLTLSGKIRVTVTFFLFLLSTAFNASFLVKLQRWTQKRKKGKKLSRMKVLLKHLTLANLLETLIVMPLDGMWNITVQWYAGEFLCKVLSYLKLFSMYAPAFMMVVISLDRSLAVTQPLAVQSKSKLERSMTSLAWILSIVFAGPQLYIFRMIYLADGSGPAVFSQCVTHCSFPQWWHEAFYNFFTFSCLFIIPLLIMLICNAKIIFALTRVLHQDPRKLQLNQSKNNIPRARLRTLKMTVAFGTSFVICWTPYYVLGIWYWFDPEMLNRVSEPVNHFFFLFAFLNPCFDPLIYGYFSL
Experimental: ^125I-Triptorelin [^125I-(D)-Trp6-GnRH] was purchased from Biotrend (Cologne, Germany).
The specific activity was in each case 2.13 Ci/mmol.
LTK cells (mouse fibroblasts: ATCC No. CCL-1.3) which have been transfected with the rat LHRH receptor are cultivated in DMEM medium (Invitrogen Life Technologies, Germany) with penicillin (100 I.U./ml), streptomycin (0.1 mg/ml) and glutamine (0.01 mol/l) and 10% fetal calf serum (FCS; Invitrogen Life Technologies, Germany) on plastic tissue culture plates (Nunc, Germany, 245×245-20 mm).
80% confluent cell culture plates are washed twice with 50 ml of phosphate-buffered saline (PBS) and then detached with 0.01 M EDTA solution. The cells are pelleted by centrifugation at 200·g for 5 min in a laboratory centrifuge (Kendro, Germany). The cell pellet is resuspended in 3 ml of binding medium (DMEM; 10 mM Hepes; 0.5% BSA; 0.1% […]; 1 g/l bacitracin (add fresh, stock 100×); 0.1 g/l SBTI (add fresh, stock 1000×) and the cell count is determined by Trypan blue staining in a Neubauer counting chamber. The cell suspension is adjusted with binding medium to a concentration of 5×10^5 cells/0.05 ml.
Binding studies for competition plots are carried out as duplicates. The test substances are employed as 10 mM DMSO solutions. They are diluted to 4 times the final concentration employed with binding medium. 25 μl of the substance dilution are mixed with 25 μl of tracer solution (^125I-triptorelin or ^125I-cetrorelix). The tracer concentration is adjusted to approx. 50 000 cpm (measured in a Cobra II, γ counter. PE Liefe Science, Germany) in the final reaction volume of 100 μl.
200 μl of silicone/liquid paraffin mixture (84%:16%) are introduced into 650 μl conical tubes (Roth. Germany). 50 μl of the cell suspension are pipetted thereon, followed by 50 μl of the test substance/tracer mixture. The tubes are capped and incubated with vertical rotation in an incubator at 37° C. for 60 min. After incubation, the samples are centrifuged in a centrifuge (Kendro, Germany) at 900 rpm and subsequently shock-frozen in liquid N2. The tip with the cell pellet is cut off and transferred into prepared counting vials (Roth, Germany). The remainder of the conical tube with the remaining supernatant is likewise transferred into a counting vial. The measurement takes place in a γ counter for 1 min/sample.
Evaluation of the samples takes place after calculation of the specific binding compared with untreated cells, after subtraction of the nonspecific binding (excess of unlabeled ligand, 1 μM) by means of GraphPad Prism or alternatively by means of OMMM software.

[1] = system: LHRH-stimulated LH secretion from rat pituitary cells; assay: Inhibition of LHRH-induced LH secretion from rat pituitary cells in vitro; type: cell-based
Experimental: The LH concentration in cell culture supernatants was measured using the rat luteinizing hormone (rLH) enzyme immunoassay (EIA) system ELISA (RPN 2562) from Amersham Pharmacia Biotech. All other chemicals used were from commercial sources in the highest purity available.
Juvenile male Wistar rats (Harlan Winkelmann, Germany) were sacrificed by decapitation, and the pituitaries were removed and taken up in Hanks' buffer (HBSS) with 0.3% BSA and 10 mM HEPES (pH 7.4). Pituitaries from 20 rats were required to carry out one experiment. The cells of the anterior lobe of the pituitary were separated from the remaining tissue by incubation in Hanks' buffer with 10 mM HEPES (pH 7.4), 0.3% BSA, 1 mg/ml hyaluronidase (type VIII), 1 mg/ml soybean trypsin inhibitor, 10 μg/ml DNAsel and 1 mg/ml papain at 37° C. for 30 minutes A sterile Pasteur pipette was used to disperse the cells, and they were subsequently pelleted by centrifugation. The cells were seeded in a density of 2.5×10^5 cells/well of a collagen-coated 48-well plate (Becton Dickinson) in DMEM medium (Invitrogen Life Technologies, Germany) with 10% fetal calf serum (FCS; Invitrogen Life Technologies, Germany), 10 mill nonessential amino acids and 10 mill Pen/Strep (penicillin/streptomycin).
The medium was changed after incubation at 37° C., 5% CO2 and 95% humidity for 48 h. The medium was replaced by LHRH-containing (10 nM) medium or medium with LHRH (10 nM) and test substance in the concentration indicated (table). After a further incubation for 3 hours, the cell supernatant was harvested and frozen at −20° C. The LH content was determined by means of ELISA in triplicate determination in accordance with the manufacturer's (Amersham Pharmacia Biotech) instructions.
In the following table, “% Inhibition” describes the quotient of LHRH-stimulated LH secretion with (“LH (ng/ml)” and without the addition of the test substance. The values originate from different, independent experiments.

[2] = Saturation solubility in water; type: physicochemical; settings: maximum of 1% DMSO added, HPLC UV; for solubility: water, thermodynamic from solid
Experimental: The saturation solubility in water was determined in accordance with the following description: to initiate dissolving of the substances and to improve the wetting of the samples, a maximum of 1% DMSO was added. The content was checked by using an HPLC UV method.

LHRH receptor = molecular target: T2, LHRH receptor (Rattus norvegicus, UniProt P30969); assay: LHRH receptor-ligand binding assay (membrane preparations from rat pituitary cells); settings: competition with 0.05 nM [125I][D-Trp6]-LHRH, 90 min, 4° C., rat pituitary membranes
T2 construct: rat pituitary cells which naturally strongly express the LHRH receptor; from tissue; host or cells: rat pituitary cells (membrane preparation)
T2 sequence (P30969 1-327): T1 sequence (P30969 1-327)
Experimental: Heterologous competition experiments were carried out using membrane preparations from rat pituitary cells which naturally strongly express the LHRH receptor. The ligand used in this case was [^125I][D-Trp^6]-LHRH in a concentration of 0.05 nM. Unlabeled [D-Trp^6]-LHRH was used in a concentration of 1 μM, or the test substance was used in the desired concentration, for competition. After an incubation time of 90 minutes at 4° C., the bound ligand was measured by scintillation (Halmos et al., Proc. Natl. Acad. Sci. USA, 1996, 93, 2398).
The result obtained was the percentage proportion of bound ligand in the presence of the competitor related to the specifically bound proportion of the control (see result for selected compounds in Table 3). EC50 values were calculated by nonlinear regression analysis of the competition plots.

[3] = Metabolic stability in rat liver microsomes; type: in vitro ADME; settings: 1 μM, 37° C., NADPH
Experimental: (§1) The metabolic stability in relation to liver microsomes (species human, rat) was determined in accordance with the following description: the substances were incubated at a test concentration of 1 […] An HPLC MS/MS method was subsequently used to quantify the unmetabolized amount of starting compound relative to 100%.

[4] = Metabolic stability in human liver microsomes; type: in vitro ADME; settings: 1 μM, 37° C., NADPH
Experimental: as §1

[5] = test substance 3.3 × 10^−8 M, LHRH 10 nM, 3 hours

## CCC(C)[C@H](NC(=O)[C@@]1(NC(=O)[C@@H](NC(=O)Cc2ccccc2F)C(C)CC)CCc2[nH]c3c(Cl)cc(Cl)cc3c2C1)C(N)=O (stereo partly drawn) [Compound 4, (R)-6,8-dichloro-3-{(S)-2-[2-(2-fluorophenyl)acetylamino]-3-methylpentanoylamino}-2,3,4,9-tetrahydro-1H-carbazole-3-carboxylic acid ((S)-1-carbamoyl-2-methylbutyl)amide]
Rat LHRH receptor
  EC50: 4.8 nM
[1]; Rattus norvegicus, 3 h
  inhibition at 0.033 µM: 67%
[1]; [5]
  LH (ng/ml) ± SD: 79.3 ± 5.7 ng/mL

## CC[C@H](C)[C@H](NC(=O)[C@@]1(NC(=O)[C@H](Cc2ccc(OP(=O)(O)O)cc2)NC(=O)OCc2ccccc2)CCc2[nH]c3c(Cl)cc(Cl)cc3c2C1)C(N)=O [Compound 9]
[2]
  solubility: 151 µg/mL (≈ 191 µM)

## CCC(C)[C@H](NC(=O)[C@@]1(NC(=O)[C@H](CCc2ccc(O)cc2)NC(=O)OCc2ccccc2)CCc2[nH]c3c(Cl)cc(Cl)cc3c2C1)C(N)=S (stereo partly drawn) [Compound 10, benzyl[(S)-1-[(R)-6,8-dichloro-3-((S)-2-methyl-1-thiocarbamoylbutylcarbamoyl)-2,3,4,9-tetrahydro-1H-carbazol-3-ylcarbamoyl]-3-(4-hydroxyphenyl)propyl]carbamate]
Rat LHRH receptor
  EC50: 7.5 nM
[1]; Rattus norvegicus, test substance 3.3 × 10^−8 M, LHRH 10 nM, 3 hours, read-out: % Inhibition
  inhibition at 0.033 µM: 39%
[1]; Rattus norvegicus, test substance 3.3 × 10^−9 M, LHRH 10 nM, 3 hours
  inhibition at 0.0033 µM: 0%
[1]; [5]
  LH (ng/ml) ± SD: 118.7 ± 11.6 ng/mL
[1]; test substance 3.3 × 10^−9 M, LHRH 10 nM, 3 hours
  LH (ng/ml) ± SD: 198.8 ± 4.2 ng/mL

## CCC(C)[C@H](NC(=O)[C@@]1(NC(=O)[C@@H](NC(=O)OCc2ccc(F)cc2)C(C)CC)CCc2[nH]c3c(Cl)cc(Cl)cc3c2C1)C(N)=O (stereo partly drawn) [Compound 48, 4-fluorobenzyl {(S)-1-[(R)-3-((S)-1-carbamoyl-2-methylbutylcarbamoyl)-6,8-dichloro-2,3,4,9-tetrahydro-1H-carbazol-3-ylcarbamoyl]-2-methylbutyl}carbamate]
LHRH receptor
  EC50: 8 nM

## CCC(C)[C@H](NC(=O)Cc1ccc(F)cc1F)C(=O)N[C@]1(C(=O)N[C@H](C(N)=S)C(C)CC)CCc2[nH]c3c(Cl)cc(F)cc3c2C1 (stereo partly drawn) [Compound 66, (R)-8-chloro-3-{(S)-2-[2-(2,4-difluorophenyl)acetylamino]-3-methylpentanoylamino}-6-fluoro-2,3,4,9-tetrahydro-1H-carbazole-3-carboxylic acid ((S)-2-methyl-1-thiocarbamoylbutyl)amide]
LHRH receptor
  EC50: 0.72 nM

## CCC(C)[C@H](NCCc1ccc(F)cc1)C(=O)N[C@]1(C(=O)N[C@H](C(N)=S)C(C)CC)CCc2[nH]c3c(Cl)cc(F)cc3c2C1 (stereo partly drawn) [Compound 67, (R)-8-chloro-6-fluoro-3-{(S)-2-[2-(4-fluorophenyl)ethylamino]-3-methylpentanoylamino}-2,3,4,9-tetrahydro-1H-carbazole-3-carboxylic acid ((S)-2-methyl-1-thiocarbamoylbutyl)amide]
LHRH receptor
  EC50: 6.9 nM

## CCC(C)[C@H](NC(=O)[C@@]1(NC(=O)[C@@H](NC(=O)Cc2ccccc2F)C(C)CC)CCc2[nH]c3c(C(F)(F)F)cccc3c2C1)C(N)=O (stereo partly drawn) [Compound 75, (R)-3-{(S)-2-[2-(2-fluorophenyl)acetylamino]-3-methylpentanoylamino}-8-trifluoromethyl-2,3,4,9-tetrahydro-1H-carbazole-3-carboxylic acid ((S)-1-carbamoyl-2-methylbutyl)amide]
LHRH receptor
  EC50: 0.59 nM

## CCC(C)[C@H](NC(=O)[C@@]1(NC(=O)[C@@H](NC(=O)OCc2ccccc2)C(C)CC)CCc2[nH]c3c(OC)cccc3c2C1)C(N)=O (stereo partly drawn) [Example 294 from WO 03/051837 A2, Benzyl {(S)-1-[(R)-3-((S)-1-carbamoyl-2-methylbutylcarbamoyl)-8-methoxy-2,3,4,9-tetrahydro-1H-carbazol-3-ylcarbamoyl]-2-methylbutyl]carbamate, reference compound]
[3]
  recovery at 1 μM: 5%
[4]
  recovery at 1 μM: 0%

## CCC(C)C(NC(=O)OCc1ccccc1)C(=O)NC1(C(=O)NC(C(N)=O)C2CCCCC2)CCc2[nH]c3c(Cl)cc(Cl)cc3c2C1 (centres unmarked) [Example 300 from WO 03/051837 A2, reference compound]
[2]
  Saturation solubility in water: 0.38 µg/mL

## CCC(C)C(NC(=O)C1(NC(=O)C(CCc2ccc(O)cc2)NC(=O)OCc2ccccc2)CCc2[nH]c3c(Cl)cc(Cl)cc3c2C1)C(N)=O (centres unmarked) [Example 303 from WO 03/051837 A2, Benzyl [1-[3-(1-carbamoyl-2-methylbutylcarbamoyl)-6,8-dichloro-2,3,4,9-tetrahydro-1H-carbazol-3-ylcarbamoyl]-3-(4-hydroxyphenyl)propyl]carbamate, reference compound]
[2]
  solubility: 0.35 µg/mL (≈ 0.484 µM)

## benzyl[(S)-1-[(R)-3-((S)-carbamoyl-2-methylbutylcarbamoyl)-6,8-dichloro-2,3,4,9-tetrahydro-1H-carbazol-3-ylcarbamoyl]-3-(4-phosphonooxyphenyl)propyl]-carbamate [Compound 11]
[4]
  Metabolic stability (human) [1 h, % recovery]: 77%
Rat LHRH receptor
  EC50: 17.2 nM
[2]
  Saturation solubility in water: 39.9 µg/mL
